According to patent publication US20050187288A1, “Beta-lapachone and methods of treating cancer” (priority 2004, published 2005):

Experiments:
ASPC-1 = assay: Colony formation assay, combination with Taxol; type: cell-based, human; settings: β-Lapachone 4 μM, Taxol 0.2 μM, 4 hours
Description: Control wells were treated with equivalent volumes of DMSO. After 4 hours cells were rinsed and fresh medium is added. Cultures were observed daily for 10-20 days and then were fixed and stained. […] DNA laddering formation and annexin staining indicate that cell death is due to apoptosis.

G480 lung cancer cells = assay: Colony formation assay, single agents and combination; type: cell-based; settings: G480; β-lapachone 4 μM, 4 hours; average (SEM) of three experiments
Excerpt: Control plates received the same volume of DMSO alone. […] Treated wells were presented as percentage of control. Data were presented as an average (+SEM) from three independent experiments.

60 cancer cell lines = settings: FDA approved agents, publicly available data; cited from earlier work

For `CC(=O)O[C@H]1C(=O)[C@@]2(C)[C@H]([C@H](OC(=O)c3ccccc3)[C@]3(O)C[C@H](OC(=O)[C@H](O)[C@@H](NC(=O)c4ccccc4)c4ccccc4)C(C)=C1C3(C)C)[C@]1(OC(C)=O)CO[C@@H]1C[C@@H]2O` [Taxol ®, paclitaxel, reference compound], the “Colonies, Percentage of control” value (ASPC-1) was 71 (0.8) Percentage of control and the “Colonies (percent control)” value (G480 lung cancer cells) was 39 (2.6) percent control.
For `O=C1c2c(O)ccc(O)c2C(=O)c2c(NCCNCCO)ccc(NCCNCCO)c21` [mitoxantrone], the “mean LC50 across all cells compared with the mean of β-lapachone” value (60 cancer cell lines) is given as “equals it”.
